Source: patent US20210205271A1 (The Johns Hopkins University, priority 2018, published 2021)
Like-named read-outs stand apart in the source and are kept apart here.

Assays:
[1] = mouse, in vivo, iv, 1.5 mg/kg
Description: (§1) All pharmacokinetic studies in mice were conducted according to protocols approved by the Animal Care and Use Committee at Johns Hopkins University. Male CD-1 mice between 25 and 30 g were obtained from Harlan, and maintained on a 12-h light-dark cycle with ad libitum access to food and water. […] The mice were sacrificed at specified time points post drug administration. For collection of plasma and brain tissue, animals were euthanized with CO2, and blood samples were collected in heparinized microtubes by cardiac puncture. Tissues were dissected and immediately flash frozen (−80° C.). Blood samples were spun at 2,000×g for 15 min, plasma was removed and stored at −80° C. until LC/MS analysis. Prior to extraction, frozen samples were thawed on ice. The calibration curves were developed using plasma and brain from naïve animals as a matrix. Plasma samples (50 μL), were processed using a single liquid extraction method by addition of 3004 of acetonitrile as with internal standard (losartan: 0.5 μM), followed by vortex mixing for 30 sec and then centrifugation at 10,000×g for 10 min at 4° C. For brain tissue, homogenized samples were vortex mixed and centrifuged as above. A 104 aliquot of supernatant was diluted with 35 µL of acetonitrile and mixed with 50 μL water containing 0.5 μM losartan as internal standard. Extracts were centrifuged at 10,000×g for 10 min at 4° C. Supernatants were transferred to 2504 polypropylene autosampler vials sealed with a Teflon cap. A volume of 34 was injected onto the ultra-performance liquid chromatography (UPLC) instrument for quantitative analysis by LC-MS/MS.

[2] = mouse, in vivo, po, 30 mg/kg
Description: Brain concentrations of MBZ were also measured in tandem.
as §1

[3] = MBZ plasma exposure in male beagle dogs after oral administration; type: in vivo, dog; conditions: PO […] MBZ equivalent
[4] = dog, in vivo, iv, 0.3 mg/kg
Description: Using a co-solvent system comprising of 1% DMSO and 10% CremophorEL formulation, however, MBZ was successfully administered via IV at a dose of 1.5 mg/kg in mice (FIG. 3A) and a dose of 0.3 mg/kg in dog (FIG. 3B).

[5] = rats; cited from earlier work

Row | AUC0-t [1] [nM·h] | Cmax [1] [µM] | Tmax [1] [min] | Vd [1] [L/kg] | time of Cmax post-dose [1] [min] | AUC0-t (MBZ, brain) [2] [nmol·h/g] | AUC0-t (MBZ, plasma) [2] [nM·h] | % F (oral bioavailability of MBZ) [3] [%] | Tmax (MBZ, plasma) [3] [h] | AUC0-t [4] [nM·h] | Vd [4] [L/kg] | Compound | fold improvement in plasma exposure versus equimolar oral MBZ [5] [fold]
1 | 2700 | 5.3 | 4.98 | 1.4 | 5 | 13.1 ± 4.2 | 12900 | 11 | 2 | 900 | 1.3 | Mebendazole [MBZ-C] | 
2 |  |  |  |  |  |  |  |  |  |  |  | COC(=O)NC(=S)Nc1cc(C(=O)c2ccccc2)ccc1N [4-amino-3-(3′-methoxycarbonyl-2′-thioureido)benzophonone] | 2
